From paper PMC9239059, “Structure-Guided Synthesis of FK506 and FK520 Analogs with Increased Selectivity Exhibit In Vivo Therapeutic Efficacy against Cryptococcus” (mBio, 2022)
Converted amounts (≈) assume the structure as drawn.

What was measured:
FKBP12 [1] = molecular target: T1, FKBP12 (Candida albicans, UniProt C4YFI3+C4YS24+P28870); experiment: BLI, compound-mediated ternary complex formation, […] compound; assay type: binding
T1 construct: gene RBP1; biotinylated (Avi-tagged) FKBP12; with CnA-CnB-calmodulin
T1 sequence (P28870 whole entry): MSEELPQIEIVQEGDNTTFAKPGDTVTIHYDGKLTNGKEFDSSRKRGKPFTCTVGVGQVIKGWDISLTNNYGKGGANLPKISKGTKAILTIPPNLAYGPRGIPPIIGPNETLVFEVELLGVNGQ
T1 sequence (C4YFI3 54-445): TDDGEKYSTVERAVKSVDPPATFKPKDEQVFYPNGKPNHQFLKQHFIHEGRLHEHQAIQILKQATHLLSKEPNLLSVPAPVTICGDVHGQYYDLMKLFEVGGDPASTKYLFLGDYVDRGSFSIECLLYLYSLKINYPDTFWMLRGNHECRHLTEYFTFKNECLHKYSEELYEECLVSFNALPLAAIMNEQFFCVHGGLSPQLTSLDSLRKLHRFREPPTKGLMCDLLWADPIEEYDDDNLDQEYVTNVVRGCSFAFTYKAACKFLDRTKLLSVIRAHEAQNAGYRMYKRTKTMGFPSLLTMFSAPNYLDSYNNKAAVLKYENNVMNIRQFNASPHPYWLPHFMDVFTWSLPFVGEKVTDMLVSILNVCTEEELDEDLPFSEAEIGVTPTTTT
T1 sequence (C4YS24 1-173): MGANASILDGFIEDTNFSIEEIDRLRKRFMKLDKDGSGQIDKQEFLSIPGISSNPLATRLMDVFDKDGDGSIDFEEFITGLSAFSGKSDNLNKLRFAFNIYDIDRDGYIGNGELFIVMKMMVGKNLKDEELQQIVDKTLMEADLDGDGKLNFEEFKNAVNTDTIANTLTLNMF
T1 sequence (P23286 whole entry partner): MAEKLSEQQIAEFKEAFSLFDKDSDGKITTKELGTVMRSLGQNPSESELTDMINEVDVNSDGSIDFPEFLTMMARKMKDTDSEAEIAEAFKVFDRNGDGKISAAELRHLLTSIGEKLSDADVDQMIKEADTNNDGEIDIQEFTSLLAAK

[2] = system: T2, Cryptococcus neoformans (H99); experiment: microbe, parasite or virus in culture; parameters: CLSI M27-A3 broth microdilution in RPMI 1640 at 37 C, growth inhibition of C. neoformans (MIC)
T2 construct: H99
Procedure: In vitro antifungal activities of FK506, FK520, and analogs were assessed in RPMI 1640 (Sigma-Aldrich) for all strains tested. MICs/minimum effective concentrations (MECs) for each drug were measured using modified Clinical and Laboratory Standards Institute (CLSI) M38-A2 and M27-A3 standard in vitro antifungal susceptibility protocols. Broth microdilution assays for MIC/MEC assessment were performed as described previously ([33]). All antifungal assays with C. neoformans were performed at 37°C. Antifungal susceptibility testing for C. albicans was performed in the presence of a uniform 1 μg/mL concentration of fluconazole to sensitize the organism to calcineurin inhibition. MICs/minimum effective concentrations (MECs) were determined for each of the novel analogs against the three major human fungal pathogens, A. fumigatus, C. neoformans, and C. albicans. […] Thus, analogs of FK506 and FK520 can tolerate up to 100-fold reduction in antifungal activity and still be considered for in vivo testing. For C. neoformans, MICs were the most uniform and ranged from 0.2 to 2 μg/mL, which is between 4- and 40-fold reduced for antifungal activity. C. albicans MICs ranged from 0.2 to 6.25 μg/mL, which is between 10- and 312.5-fold reduced for activity. Despite being one of the most difficult to treat fungal infections, all six analogs were active against A. fumigatus with MECs ranging from 1 to 2 μg/mL or a 62.5- to 125-fold reduction in activity.

FKBP12 [3] = molecular target: T3, FKBP12 (Aspergillus fumigatus, UniProt Q4WLV6); experiment: BLI, compound-mediated ternary complex formation, […] compound; assay type: binding
T3 construct: gene fpr1A; biotinylated (Avi-tagged) FKBP12; with CnA-CnB-calmodulin
T3 sequence (Q4WLV6 whole entry): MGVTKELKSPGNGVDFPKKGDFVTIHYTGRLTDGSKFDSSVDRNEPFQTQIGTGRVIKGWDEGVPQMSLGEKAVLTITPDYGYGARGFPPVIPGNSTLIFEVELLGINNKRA
T3 sequence (Q4WUR1 whole entry partner): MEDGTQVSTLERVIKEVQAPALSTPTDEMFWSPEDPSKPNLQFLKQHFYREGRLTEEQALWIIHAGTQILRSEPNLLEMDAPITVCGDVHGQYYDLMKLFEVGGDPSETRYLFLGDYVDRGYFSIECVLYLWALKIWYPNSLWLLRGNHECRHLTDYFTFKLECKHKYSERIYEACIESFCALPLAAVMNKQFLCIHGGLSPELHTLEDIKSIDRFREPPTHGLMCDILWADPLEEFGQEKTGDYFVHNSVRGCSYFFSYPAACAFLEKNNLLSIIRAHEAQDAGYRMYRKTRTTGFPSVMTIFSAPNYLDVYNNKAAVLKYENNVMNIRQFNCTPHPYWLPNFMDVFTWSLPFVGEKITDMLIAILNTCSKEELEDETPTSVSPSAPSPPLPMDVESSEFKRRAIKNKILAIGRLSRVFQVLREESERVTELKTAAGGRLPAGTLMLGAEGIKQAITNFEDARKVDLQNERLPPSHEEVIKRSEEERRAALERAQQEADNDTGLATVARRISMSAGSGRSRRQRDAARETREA

| SMILES | BLI, compound-mediated ternary complex formation, 10 μM compound (FKBP12 [1]) | MIC (μg/mL) against: / Cryptococcus neoformans (H99)^a ([2]; inhibitor) [µg/mL] | BLI, compound-mediated ternary complex formation, 10 μM compound (FKBP12 [3]) | MIC ([2]; Cryptococcus neoformans, read-out: MIC (μg/mL) against: / Cryptococcus neoformans (H99)^a) [µg/mL] |
| --- | --- | --- | --- | --- |
| CC[C@@H]1/C=C(\C)C[C@H](C)C[C@H](OC)[C@H]2O[C@@](O)(C(=O)C(=O)N3CCCC[C@H]3C(=O)O[C@H](/C(C)=C/[C@@H]3CC[C@@H](O)[C@H](OC)C3)[C@H](C)[C@@H](O)CC1=O)[C@H](C)C[C@@H]2OC [FK520] | along with compounds FK506, APX879, FK520, JH-FK-02, and JH-FK-05 | 0.05 (≈ 0.0631 µM) | – | – |
| C=CC[C@@H]1/C=C(\C)C[C@H](C)C[C@H](OC)[C@H]2O[C@@](O)(C(=O)C(=O)N3CCCC[C@H]3C(=O)O[C@H](/C(C)=C/[C@@H]3CC[C@@H](O)[C@H](OC)C3)[C@H](C)[C@@H](O)C/C1=N/NC(=O)CC)[C@H](C)C[C@@H]2OC [JH-FK-02] | target complexes form in the presence of the analogs with affinities similar to those of the parent compounds | – | target complexes form in the presence of the analogs with affinities similar to those of the parent compounds | 2 (≈ 2.29 µM) |
